Reference: the METLIN SMRT retention time set (Domingo-Almenara et al. 2019)

Experiment: gradient 5% acetonitrile 3 min, to 50% in 2 min, to 85% in 15 min, held 3 min, 100 µL/min
Conditions: column: Zorbax Extend-C18 2.1 x 50 mm; eluents: water / acetonitrile, 0.1% formic acid
Outline: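 Pure standards were run in mixtures of ~100 molecules by HPLC coupled to a quadrupole time-of-flight mass spectrometer. The column was a Zorbax Extend-C18 (2.1 × 50 mm, 1.8 μm) at 100 μL/min, with water and acetonitrile each containing 0.1% formic acid, in positive and negative ionization mode. Dead and dwell volumes were 40 μL and 900 μL. Retention time was taken from computationally picked adduct peaks, each manually inspected, with data collected over 3 months.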

Row | Compound | RP-LC retention time [s]
1 | COc1ccc(OC)c(CNC(=O)C2(CCO)CCN(c3ncccn3)C2)c1 (stereo not given) | 618
2 | CCCC(=O)Nc1nc(-c2ccc3c(c2)N(C)C(=O)CO3)cs1 | 821
3 | O=C(Cn1c(=O)c2cccn2c2ccc(F)cc21)NCCC1=CCCCC1 | 952
4 | CCOC(=O)c1[nH]c(C)c(CCC(=O)N2CCC(C(=O)NCc3ccc(OC(C)C)cc3)CC2)c1C | 850
5 | COc1cc2c(cc1/C=C/[N+](=O)[O-])OC(C)C2 (stereo not given) | 908
6 | O=C(COC(=O)c1cccc([N+](=O)[O-])c1)c1ccc(NC(=O)c2ccccc2)cc1 | 921
7 | COC(=O)c1sc2ccc(NC(=O)C3CCN(S(=O)(=O)N4CCOCC4)CC3)cc2c1OC | 853
8 | Cc1cc(C)n(-c2ccnc(N3CCC(C(=O)N4CCN(c5ccccc5)CC4)CC3)n2)n1 | 907
9 | CCOc1ccccc1NC(=O)C1CCCN1S(=O)(=O)c1cc2c(cc1C)NC(=O)C(C)O2 (stereo not given) | 784
10 | CCN(CC)c1nc(-c2ccc([N+](=O)[O-])cc2)nc2ccccc12 | 771
11 | Cc1cc(C)n2nc(CN(C(=O)c3ccco3)c3cccc(Cl)c3)nc2n1 | 776
12 | Cc1noc(-c2ccc(NC(=O)CSc3nnnn3C)cc2)n1 | 665
13 | Cc1ccc2c(c1)N(C(=O)CCC(=O)NCCCN1CCN(C3CCCCC3)CC1)CC(C)O2 (stereo not given) | 603
14 | CCN1C(=O)c2cc(S(=O)(=O)NCc3ccccc3F)ccc2Oc2cccnc21 | 1010
15 | Cc1ccc(-c2nc3cnccn3c2Nc2ccc(C)cc2C)cc1 | 1070
16 | CC(C)(O)CC(=O)NCCn1ccc2ncnc(Nc3ccc(Oc4cccc(C(F)(F)F)c4)c(Cl)c3)c21 | 802
17 | CC(C)(C)c1cc(C(=O)Nc2cc(F)ccc2F)nc2ccnn12 | 1450
18 | Cc1nccn1CC(=O)N1CCCC(OCc2nc(C(C)C)no2)C1 (stereo not given) | 596
19 | CCOc1cccc(-c2noc(Cn3ncn4nc(-c5ccc(F)cc5)cc4c3=O)n2)c1 | 860

Row | Compound | RP-LC retention time [s]
20 | FC1(F)CN[C@H](c2nc(-c3cccnc3)no2)C1 | 621
21 | CCc1sc(NC(=O)Cc2c(F)cccc2Cl)nc1-c1ccccc1 | 1150
22 | CCC(C)NC(=O)c1cc(=O)[nH]c2c(C)cccc12 (stereo not given) | 661
23 | CC1CN(C(=O)Cn2cc(SCC(=O)NC3CCCCC3)c3ccccc32)CC(C)O1 (stereo not given) | 879
24 | CCc1nnc2ccc(-c3noc(-c4ccc(OC)c(OC)c4)n3)cn12 | 829
25 | O=C(NCCn1c(-c2ccncc2)nc2cccnc21)Nc1cccc(Cl)c1 | 645
26 | CCc1cccc(C)c1Nc1c(-c2cc(Br)ccc2O)nc2nc(C)cc(C)n12 | 1040
27 | Cc1ccc(Nc2c(-c3ccc(C)cc3)nc3ccc(C)cn23)cc1 | 797
28 | O=S(=O)(c1ccc2c(c1)CCC2)N1CCC(CN2CCCCCC2)CC1 | 708
29 | Cc1nn(-c2ccccc2)c(C)c1S(=O)(=O)N1CCC(C(=O)Nc2ccc(Cl)cc2)CC1 | 726
30 | CCCN1CCN(C(=O)C2CCN(c3cnn(CCC)c(=O)c3)CC2)CC1 | 570
31 | CCCCNC(=O)CCc1c(C)n(C)c2nc(-c3ccccc3)nn2c1=O | 706
32 | Cc1cccc2sc(NC(=O)C3(c4cccs4)CCOCC3)nc12 | 987
33 | Cc1cc(C)n(C(C)CC(=O)N2CCN(S(=O)(=O)c3ccc(Cl)cc3)CC2)n1 (stereo not given) | 750
34 | Cc1ccc(C)c(C(=O)CC2(O)C(=O)N(C)c3ccccc32)c1 (stereo not given) | 818
35 | Cc1nc(-c2cn(C)c3ncccc23)sc1C(=O)Nc1ccccc1Cl | 1090
36 | Cc1ccc(-c2cc(C(=O)NCCCN3CCC(C)CC3)c(C)[nH]2)cc1C | 725
37 | COc1ccc(C2Cn3nnc(-c4nc(-c5ccc(F)c(F)c5)no4)c3CO2)cc1 (stereo not given) | 1180

Results, then the compound that gave them:

Row | RP-LC retention time [s] | Compound
38 | 857 | COCc1cc(=O)n(CC(=O)Nc2cccc(SC)c2)c(N2CCOCC2)n1
39 | 654 | COc1ccc(C(O)CN2CCN(c3ccccc3C)CC2)cc1OC (stereo not given)
40 | 636 | Cc1ccc(NC(=O)Cn2c(N3CCCC3)nc(C)cc2=O)cc1
41 | 1080 | COC(=O)c1ccc2c(=O)n(-c3ccc4c(c3)OCO4)c(N3CCCCC3)nc2c1
42 | 780 | Cc1cc(F)ccc1NC(=O)C1CCN(c2cnc3ccccc3n2)CC1
43 | 685 | CCn1c(=O)c(N2CCCC(C(=O)NC3CCN(Cc4ccccc4)CC3)C2)nc2ccccc21 (stereo not given)
44 | 1280 | Cc1cccc(N2CCN(Cc3nc(-c4ccc(N5CCC(C)CC5)nc4)no3)CC2)c1C
45 | 637 | Cn1c(N2CCN(C(=O)c3ccc4c(c3)OCO4)CC2)cc(=O)n(C)c1=O
46 | 616 | COc1ccc(NC(=O)c2cc3c(s2)CN(C2CCCC2)C3)c(OC)c1
47 | 574 | c1ccc2c(N3CCOCC3)nnc(N3CCCC3)c2c1
48 | 751 | CC1=C(c2ccc(F)cc2)S(=O)(=O)N=C1N1CCCN(C(=O)C(C)C)CC1
49 | 926 | COc1ccc(N2CC(c3noc(-c4ccc(F)cc4)n3)CC2=O)cc1 (stereo not given)
50 | 674 | Cc1cc(C)cc(NC(=O)Cn2nc3n(c2=O)CCCC3)c1
51 | 1030 | CCCN1C(=O)c2cc(S(=O)(=O)Nc3ccc(OC)cc3)ccc2Oc2cccnc21
52 | 841 | O=C(NC1CCCC1)C1CCN(C(=O)N2CCOc3ccc(Cl)cc32)CC1
53 | 721 | O=C(Cn1cnc2nc3c(cc2c1=O)CCCC3)Nc1cccc(F)c1
54 | 757 | Cc1nnc(N2CCCC(C(=O)NCc3cccc(F)c3)C2)c2nn(-c3ccc(Cl)cc3)c(C)c12 (stereo not given)
55 | 681 | COc1ccc(-c2cc3nn(CC(=O)Nc4cccc(OC)c4)c(=O)n3c(C)n2)cc1
56 | 639 | O=C(NCCCN1CCCC1)c1ccc2ccnc(N3CCN(c4ccc(Cl)cc4)CC3)c2c1
57 | 775 | COc1ccccc1CNC1=NCCNC12CCN(S(=O)(=O)c1cc(C)ccc1C)CC2
58 | 693 | COc1ccc(NC(=O)CN2C(=O)C3CCCN3C(=O)c3ccc(F)cc32)cc1 (stereo not given)
59 | 664 | Cc1ccc(N2CCN(C(=O)c3cn4ccc(C)cc4n3)CC2)cc1
60 | 806 | O=C(Nc1ccc(F)cc1F)N1CCC(n2cnc3c(Cl)cccc3c2=O)CC1
61 | 695 | C=CC(=O)Nc1cccc(Oc2nc(Nc3ccc(N4CCN(C)CC4)cc3)ncc2Cl)c1
62 | 870 | O=C(Cn1nc2ccc(SCc3ccc(Cl)cc3)nn2c1=O)NC1CCCCC1
63 | 721 | Cc1ccc2c(c1)C(=O)NC1(CCN(C(=O)c3ccc4c(c3)OCO4)CC1)N2C
64 | 685 | CN1CCN(C(CNC(=O)C(=O)Nc2ccc(F)cc2F)c2ccc3c(c2)OCO3)CC1 (stereo not given)
65 | 636 | COCC1(F)CCN(Cc2c(-c3cc(C)ccc3C)nc3cc(C)ccn23)CC1
